Experimental data: paper PMC6270601, “Dimeric Labdane Diterpenes: Synthesis and Antiproliferative Effects” (Molecules, 2013)

Experiments:
AGS cells = test: Antiproliferative assay (MTT reduction), AGS gastric adenocarcinoma cells; format: cell-based, human; conditions: Homo sapiens, 72 h; AGS gastric adenocarcinoma; 3 days treatment, MTT reduction; mean ± SD; >100 µM considered inactive
Protocol: (§1) The compounds 1–20 were assessed for antiproliferative effect towards human lung fibroblasts (MRC-5) and the following human tumor cell lines: gastric adenocarcinoma (AGS), lung cancer cells (SK-MES-1), bladder carcinoma (J82) and promyelocytic leukemia (HL-60).
(§2) All human cell lines used in this work were purchased from the American Type Culture Collection (ATCC, Manasas, VA, USA). Normal lung MRC-5 fibroblasts (CCL-171), SK-MES-1 lung cancer cells (HTB-58) and J82 bladder carcinoma cells (HTB-1) were grown as monolayers in minimum essential Eagle medium (MEM) with Earles’s salts, 2 mM L-glutamine and 1.5 g/L sodium bicarbonate. Gastric adenocarcinoma AGS cells (CRL-1739) were grown as monolayers in Ham F-12 medium containing 1 mM L-glutamine and 1.5 g/L sodium bicarbonate. Promyelocytic leukemia HL-60 cells (CCL-240) were grown in suspension in RPM1 medium containing 1 mM sodium pyruvate and 2.0 g/L sodium bicarbonate. All media were supplemented with 10% heat-inactivated FBS, 100 IU/mL penicillin and 100 µg/mL streptomycin. Cells were grown in a humidified incubator with 5% CO2 in air at 37 °C. For the antiproliferative assay, adherent cells were plated at a density of 5 × 10^4 cells/mL and HL-60 cells at 30 × 10^4 cells/mL. Cells were seeded in 96-well plates (100 µL/well). One day after seeding, cells were treated with medium containing the compounds at concentrations ranging from 0 up to 100 µM during 3 days. The compounds were dissolved in DMSO (1% final concentration) and complete medium. Untreated cells (medium containing 1% DMSO) were used as 100% viability controls. […] Each concentration was tested in sextuplicate and experiments were repeated 2 times. Cell viability was determined by means of the MTT reduction assay at the end of the incubation with the products. The results were transformed to percentage of controls and the IC50 values were graphically obtained from the dose-response curves.

HL-60 cells = test: Antiproliferative assay (MTT reduction), HL-60 promyelocytic leukemia cells; format: cell-based, human; conditions: Homo sapiens, 72 h; HL-60 promyelocytic leukemia; 3 days treatment, MTT reduction; mean ± SD; >100 µM considered inactive
Protocol: as §2, with “Normal lung MRC-5 fibroblasts (CCL-171), SK-MES-1 lung cancer cells (HTB-58) and J82 bladder carcinoma cells (HTB-1) were grown as monolayers in minimum essential Eagle medium (MEM) with Earles’s salts, 2 mM L-glutamine and 1.5 g/L sodium bicarbonate. Gastric adenocarcinoma AGS cells (CRL-1739) were grown as monolayers in Ham F-12 medium containing 1 mM L-glutamine and 1.5 g/L sodium bicarbonate.” left out, “products.” for “products. The results were transformed to percentage of controls and the IC50 values were graphically obtained from the dose-response curves.”

[1] = test system: SK-MES-1 lung cancer cells; test: Antiproliferative assay (MTT reduction), SK-MES-1 lung cancer cells; format: cell-based, human; conditions: Homo sapiens, 72 h; SK-MES-1 lung cancer cells; 3 days treatment, MTT reduction; mean ± SD; >100 µM considered inactive
Protocol: as §2, with “Normal lung MRC-5 fibroblasts (CCL-171), SK-MES-1 lung cancer cells (HTB-58) and J82 bladder carcinoma cells (HTB-1) were grown as monolayers in minimum essential Eagle medium (MEM) with Earles’s salts, 2 mM L-glutamine and 1.5 g/L sodium bicarbonate. Gastric adenocarcinoma AGS cells (CRL-1739) were grown as monolayers in Ham F-12 medium containing 1 mM L-glutamine and 1.5 g/L sodium bicarbonate.” left out, “products.” for “products. The results were transformed to percentage of controls and the IC50 values were graphically obtained from the dose-response curves.”

[2] = test system: MRC-5, AGS, SK-MES-1, J82 and HL-60 cell lines; test: Antiproliferative assay, panel of five human cell lines (summary in words); format: cell-based; conditions: SK-MES-1, J82, HL-60, up to 100 µM
Protocol: as §1, §2

[3] = test system: J82 bladder carcinoma cells; test: Antiproliferative assay (MTT reduction), J82 bladder carcinoma cells; format: cell-based, human; conditions: Homo sapiens, 72 h; J82 bladder carcinoma; 3 days treatment, MTT reduction; mean ± SD; >100 µM considered inactive
Protocol: as §2, with “Normal lung MRC-5 fibroblasts (CCL-171), SK-MES-1 lung cancer cells (HTB-58) and J82 bladder carcinoma cells (HTB-1) were grown as monolayers in minimum essential Eagle medium (MEM) with Earles’s salts, 2 mM L-glutamine and 1.5 g/L sodium bicarbonate. Gastric adenocarcinoma AGS cells (CRL-1739) were grown as monolayers in Ham F-12 medium containing 1 mM L-glutamine and 1.5 g/L sodium bicarbonate.” left out, “products.” for “products. The results were transformed to percentage of controls and the IC50 values were graphically obtained from the dose-response curves.”

MRC-5 normal fibroblasts = test: Antiproliferative assay (MTT reduction), MRC-5 normal lung fibroblasts; format: cell-based, human; conditions: Homo sapiens, MRC5, 72 h; MRC-5 normal fibroblasts; 3 days treatment, MTT reduction; mean ± SD; >100 µM considered inactive
Protocol: as §2, with “Normal lung MRC-5 fibroblasts (CCL-171), SK-MES-1 lung cancer cells (HTB-58) and J82 bladder carcinoma cells (HTB-1) were grown as monolayers in minimum essential Eagle medium (MEM) with Earles’s salts, 2 mM L-glutamine and 1.5 g/L sodium bicarbonate. Gastric adenocarcinoma AGS cells (CRL-1739) were grown as monolayers in Ham F-12 medium containing 1 mM L-glutamine and 1.5 g/L sodium bicarbonate.” left out, “products.” for “products. The results were transformed to percentage of controls and the IC50 values were graphically obtained from the dose-response curves.”

IC50 (AGS cells) [µM] | IC50 (HL-60 cells) [µM] | IC50 [1] [µM] | IC50 [3] [µM] | SMILES | antiproliferative effect on the five cell lines (in words) [2] | IC50 (MRC-5 normal fibroblasts) [µM]
> 100 | 42.4 ± 2.5 | > 100 | > 100 | C=C1CCC2[C@](C)(CCC[C@]2(C)C(=O)O)[C@H]1CC[C@@H](C)CCOC(=O)CCc1cn(CC[C@H](C)CC[C@H]2C(=C)CCC3[C@]2(C)CCC[C@]3(C)C(=O)OC)nn1 (stereo partly drawn) [Compound 19] | no antiproliferative effect on any of the cell lines, except on HL-60 | > 100
> 100 | > 100 | > 100 | > 100 | C=C1CCC2[C@](C)(CCC[C@]2(C)C(=O)OC)[C@H]1CC[C@@H](C)CCn1cc(CCC(=O)OCC[C@H](C)CC[C@H]2C(=C)CCC3[C@]2(C)CCC[C@]3(C)C(=O)OC)nn1 (stereo partly drawn) [Compound 20] | no antiproliferative effect on any of the cell lines | > 100
